Like-named read-outs stand apart in the source and are kept apart here. Some results are limits rather than exact numbers.

Series [1] has as its target T1, M. tuberculosis DNA gyrase (Mycobacterium tuberculosis, UniProt P9WG47).
T1 construct: purchased Inspiralis (Norwich, UK)
Kind of series: biochemical. The conditions noted are these: M. tuberculosis DNA gyrase supercoiling, 100 nM compound.

For series [2], the system named is M. tuberculosis H37Rv. Put plainly: microbe, parasite or virus in culture. In kind it is cell-based. The conditions noted are these: Mycobacterium tuberculosis; for IC50: read-out: Antituberculosis activity M. tuberculosis H37Rv IC50; for IC90: read-out: Antituberculosis activity M. tuberculosis H37Rv IC90.
Series [3] deals with T1, M. tuberculosis DNA gyrase. Put plainly: biochemical. In kind it is biochemical.
A further series has as its target hERG (Homo sapiens, UniProt Q12809).
The subject of series [4] is M. tuberculosis H37Rv. The conditions noted are these: calculated from the published MIC value ref 26; cited from earlier work.
Setting [5] is: reference wild-type strain, 90% inhibition of bacteria growth, mean of two independent measurements ± SD.
Setting [6] is: M. tuberculosis gyrase supercoiling IC50, Assay 1, Assay 1 (single determination).
Setting [7] is: M. tuberculosis gyrase supercoiling IC50, Assay 2, Assay 2 (single determination).
Where [8] appears, read: supercoiling assay, mean of two independent measurements ± SD, read-out: Enzyme inhibition M. tuberculosis DNA gyrase IC50.
Setting [9] is: Assay 1 (single determination), read-out: M. tuberculosis gyrase supercoiling IC50, Assay 1.
Where [10] appears, read: Assay 2 (single determination), read-out: M. tuberculosis gyrase supercoiling IC50, Assay 2.

Sequence of hERG (Q12809 whole entry): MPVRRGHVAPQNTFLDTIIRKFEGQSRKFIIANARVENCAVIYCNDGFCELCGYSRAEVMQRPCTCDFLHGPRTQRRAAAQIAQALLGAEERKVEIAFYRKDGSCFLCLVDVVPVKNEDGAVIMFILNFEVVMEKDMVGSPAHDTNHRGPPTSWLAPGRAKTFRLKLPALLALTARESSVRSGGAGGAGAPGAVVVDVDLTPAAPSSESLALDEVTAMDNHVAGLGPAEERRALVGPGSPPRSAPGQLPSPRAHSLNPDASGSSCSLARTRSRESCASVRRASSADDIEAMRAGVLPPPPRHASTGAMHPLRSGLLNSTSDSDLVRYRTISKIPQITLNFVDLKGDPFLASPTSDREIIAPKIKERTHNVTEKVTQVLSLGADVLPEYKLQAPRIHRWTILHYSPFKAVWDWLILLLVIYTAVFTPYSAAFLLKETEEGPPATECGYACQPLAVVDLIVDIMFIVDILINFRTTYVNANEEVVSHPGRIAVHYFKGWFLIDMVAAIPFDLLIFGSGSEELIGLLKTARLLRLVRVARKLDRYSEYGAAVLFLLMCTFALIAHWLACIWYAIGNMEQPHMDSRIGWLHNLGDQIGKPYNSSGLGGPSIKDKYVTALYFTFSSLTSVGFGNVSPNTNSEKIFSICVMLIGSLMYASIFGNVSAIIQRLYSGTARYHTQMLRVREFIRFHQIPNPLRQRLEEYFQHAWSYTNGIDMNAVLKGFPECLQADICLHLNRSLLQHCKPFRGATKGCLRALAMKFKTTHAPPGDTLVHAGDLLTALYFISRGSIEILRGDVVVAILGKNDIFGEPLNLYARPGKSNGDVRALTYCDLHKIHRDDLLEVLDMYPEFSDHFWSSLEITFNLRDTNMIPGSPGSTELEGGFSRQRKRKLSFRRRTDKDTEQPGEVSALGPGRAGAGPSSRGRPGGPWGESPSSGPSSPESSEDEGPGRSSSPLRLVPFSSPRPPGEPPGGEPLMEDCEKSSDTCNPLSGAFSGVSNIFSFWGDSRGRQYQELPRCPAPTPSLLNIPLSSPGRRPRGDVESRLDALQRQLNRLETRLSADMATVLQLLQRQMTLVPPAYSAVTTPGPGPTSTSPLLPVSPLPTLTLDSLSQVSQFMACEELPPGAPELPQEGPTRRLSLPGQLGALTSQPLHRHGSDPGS
T1 sequence (P9WG45 whole entry): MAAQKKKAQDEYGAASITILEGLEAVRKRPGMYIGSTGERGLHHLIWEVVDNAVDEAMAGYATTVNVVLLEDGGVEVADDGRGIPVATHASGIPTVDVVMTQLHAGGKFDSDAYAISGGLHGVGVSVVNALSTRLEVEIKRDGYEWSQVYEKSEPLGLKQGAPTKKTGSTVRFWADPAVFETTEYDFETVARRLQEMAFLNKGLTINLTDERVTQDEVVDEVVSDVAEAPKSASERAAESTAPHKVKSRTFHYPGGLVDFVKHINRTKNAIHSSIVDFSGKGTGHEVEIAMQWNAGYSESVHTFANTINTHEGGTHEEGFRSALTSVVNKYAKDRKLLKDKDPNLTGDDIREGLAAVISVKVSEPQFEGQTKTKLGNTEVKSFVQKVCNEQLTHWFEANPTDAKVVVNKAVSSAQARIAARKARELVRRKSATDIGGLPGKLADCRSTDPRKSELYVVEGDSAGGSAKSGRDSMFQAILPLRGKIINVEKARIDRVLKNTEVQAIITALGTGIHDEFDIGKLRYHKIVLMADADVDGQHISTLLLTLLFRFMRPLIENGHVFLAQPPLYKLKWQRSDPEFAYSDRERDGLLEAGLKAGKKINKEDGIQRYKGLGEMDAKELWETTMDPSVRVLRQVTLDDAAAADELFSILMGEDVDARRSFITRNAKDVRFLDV
T1 sequence (P9WG47 whole entry): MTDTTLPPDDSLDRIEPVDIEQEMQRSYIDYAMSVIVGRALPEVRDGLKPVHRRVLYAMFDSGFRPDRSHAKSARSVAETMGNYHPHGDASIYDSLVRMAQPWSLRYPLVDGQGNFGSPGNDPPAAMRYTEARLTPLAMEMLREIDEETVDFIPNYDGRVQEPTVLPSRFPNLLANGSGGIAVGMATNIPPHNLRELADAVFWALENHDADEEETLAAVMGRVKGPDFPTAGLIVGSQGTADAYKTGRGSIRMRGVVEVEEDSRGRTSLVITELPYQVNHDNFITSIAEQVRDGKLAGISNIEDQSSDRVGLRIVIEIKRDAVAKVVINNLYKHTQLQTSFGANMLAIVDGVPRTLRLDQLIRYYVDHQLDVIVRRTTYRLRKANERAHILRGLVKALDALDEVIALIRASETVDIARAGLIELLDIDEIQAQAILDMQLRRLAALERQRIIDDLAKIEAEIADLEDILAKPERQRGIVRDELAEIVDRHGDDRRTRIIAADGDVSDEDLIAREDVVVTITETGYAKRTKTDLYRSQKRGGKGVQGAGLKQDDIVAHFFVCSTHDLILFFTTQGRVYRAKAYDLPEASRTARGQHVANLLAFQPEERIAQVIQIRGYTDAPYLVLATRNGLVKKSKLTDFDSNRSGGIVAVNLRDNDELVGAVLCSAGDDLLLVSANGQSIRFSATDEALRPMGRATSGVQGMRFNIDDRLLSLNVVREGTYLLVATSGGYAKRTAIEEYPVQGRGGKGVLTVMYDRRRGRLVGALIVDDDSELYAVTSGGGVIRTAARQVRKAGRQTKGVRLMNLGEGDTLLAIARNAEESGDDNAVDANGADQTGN

As a reminder, the inhibition is the percentage by which the read-out fell short of the control. As a reminder, the IC50 is the concentration that inhibits the measured activity by half. One may read the IC90 as the concentration needed for an effect of 90%. The compound `COc1ccc2nccc(CCN3CCC(NCc4ccc(Br)c(F)c4)CC3)c2n1` [Compound 1] yielded an inhibition at 0.1 µM in series [1] of 84.1%. Further, the IC50 in the series with M. tuberculosis H37Rv [2] came to 180 ± 45 nM; in series [3] (setting [6]), 397 nM; in series [3] (setting [7]) it was 330 nM; in series [3] (setting [8]), 363 ± 34 nM; against hERG, 455 nM. In the series with M. tuberculosis H37Rv [2] (setting [5]), the IC90 was determined as 200 ± 50 nM.

In the case of `COc1ccc2nccc(CCN3CCC(NCc4ccc(I)c(F)c4)CC3)c2n1` [Compound 2], the inhibition at 0.1 µM in series [1] is 80.4%. The IC50 turned out to be 200 ± 25 nM in the series on M. tuberculosis H37Rv [2]; 155 nM in series [3] (setting [6]); 56 nM in series [3] (setting [7]); 105 ± 50 nM in series [3] (setting [8]); 243 nM at hERG. In addition, the IC90 in the series with M. tuberculosis H37Rv [2] (setting [5]) amounted to 270 ± 45 nM.

As to `COc1ccc2nccc(CCN3CCC(NCc4cc(F)c(Cl)c(F)c4)CC3)c2n1` [Compound 3], testing at 0.1 µM in series [1] gave an inhibition of 90.2%. The IC50 with M. tuberculosis H37Rv [2] amounted to 71 ± 3 nM; in series [3] (setting [9]) it was 93 nM; in series [3] (setting [10]) it was 91 nM; in series [3] (setting [8]) it was 92 ± 1 nM; against hERG, 436 nM. For the same compound, the IC90 in the series with M. tuberculosis H37Rv [2] (setting [5]) stood at 92 ± 8 nM.

Compound `COc1ccc2nccc(CCN3CCC(NCc4cc(F)c(Br)c(F)c4)CC3)c2n1` [Compound 4] gave an inhibition at 0.1 µM in series [1] of 99.8%. The IC90 with M. tuberculosis H37Rv [2] (setting [5]) is 62 ± 4 nM. Also, the IC50 came to 89 nM in series [3] (setting [9]), 69 nM in series [3] (setting [10]) and 79 ± 10 nM in series [3] (setting [8]).

The compound `COc1ccc2nccc(C(O)CC3CCC(NCc4cc(F)c(Br)c(F)c4)CC3)c2n1` (stereo not shown) [Compound 5] showed an inhibition at 0.1 µM in series [1] of 95%. The 90% effect concentration (IC90) in the series on M. tuberculosis H37Rv [2] (setting [5]) came out at 280 ± 65 nM. Also, the IC50 in series [3] (setting [9]) was found to be 97 nM; in series [3] (setting [10]), 96 nM; in series [3] (average of Assay 1 and Assay 2, read-out: M. tuberculosis gyrase supercoiling IC50, Average), 96 nM; in series [3] (setting [8]), 96 nM.

`COc1ccc2nccc(CCN3CCC(NCc4ccc(OC(F)F)c(OC)c4)CC3)c2n1` [Compound 6] had an inhibition at 0.1 µM in series [1] of 0%.

As to `COc1ccc2nccc(CCN3CCC(NCc4ccc(OC(F)F)c(O)c4)CC3)c2n1` [Compound 7], the inhibition at 0.1 µM in series [1] is 3.47%.

For `COc1ccc2nccc(CCN3CCC(NCc4ccc(C(F)(F)F)nc4)CC3)c2n1` [Compound 8], in series [1], the inhibition at 0.1 µM turned out to be 27.4%.

In series [1], `COc1ccc2nccc(CCN3CCC(NCc4cnn(C(C)C)c4)CC3)c2n1` [Compound 9] came in with an inhibition at 0.1 µM of 7.45%.

Regarding `C=CCn1cc(CNC2CCN(CCc3ccnc4ccc(OC)nc34)CC2)cn1` [Compound 10], in series [1], 0.1 µM produced 5.13% inhibition.

`COc1ccc2nccc(CCN3CCC(NCc4ccc(N(C)C)cc4)CC3)c2n1` [Compound 11] came in with an inhibition at 0.1 µM in series [1] of 0%.

The compound `COc1ccc(CNC2CCN(CCc3ccnc4ccc(OC)nc34)CC2)cn1` [Compound 12] returned an inhibition at 0.1 µM in series [1] of 0%.

The compound `COc1ccc2nccc(CCN3CCC(NCc4ccccc4)CC3)c2n1` [Compound 13] returned an inhibition at 0.1 µM in series [1] of 0%.

Turning to `COc1ccc2nccc(CCN3CCC(NCc4ccc(F)cc4)CC3)c2n1` [Compound 14], the inhibition at 0.1 µM in series [1] is 0%.

With `COc1ccc2nccc(CCN3CCC(NCc4ccc(Cl)cc4)CC3)c2n1` [Compound 15], the inhibition at 0.1 µM in series [1] is 44.8%.

As for `COc1ccc2nccc(CCN3CCC(NCc4ccc(Br)cc4)CC3)c2n1` [Compound 16], the inhibition at 0.1 µM in series [1] came to 64.1%.

For the compound `COc1ccc2nccc(CCN3CCC(NCc4ccc(I)cc4)CC3)c2n1` [Compound 17], testing at 0.1 µM in series [1] gave an inhibition of 63.7%.

With `COc1ccc2nccc(CCN3CCC(NCc4ccc(Cl)c(F)c4)CC3)c2n1` [Compound 18], in series [1], the inhibition at 0.1 µM worked out at 52.2%.

Regarding `COc1ccc2nccc(CCN3CCC(NCc4ccc(Br)c(F)c4F)CC3)c2n1` [Compound 19], testing at 0.1 µM in series [1] gave an inhibition of 29.9%.

In series [1], `COc1ccc2nccc(CCN3CCC(NCc4cc(F)c(Br)cc4F)CC3)c2n1` [Compound 20] yielded an inhibition at 0.1 µM of 43.1%.

Turning to `COc1ccc2nccc(CCN3CCC(NCc4ccc(I)c(F)c4F)CC3)c2n1` [Compound 21], the inhibition at 0.1 µM in series [1] came to 14.4%.

In series [1], `COc1ccc2nccc(CCN3CCC(NCc4ccc(Cl)nc4)CC3)c2n1` [Compound 22] registered an inhibition at 0.1 µM of 27.3%.

In the case of `COc1ccc2nccc(CCN3CCC(NCc4ccc(Cl)cn4)CC3)c2n1` [Compound 23], the inhibition at 0.1 µM in series [1] amounted to 0%.

In turn, `COc1ccc2nccc(OCC3CCC(NCc4ccc(Cl)cc4)CC3)c2n1` (stereo not shown) [Compound 24] gave an inhibition at 0.1 µM in series [1] of 4.7 ± 4.7%.

With `COc1ccc2nccc(OCC3CCC(NCc4ccc(Br)cc4)CC3)c2n1` (stereo not shown) [Compound 25], at 0.1 µM the inhibition in series [1] was 0%.

The compound `COc1ccc2nccc(OCC3CCC(NCc4ccc(I)cc4)CC3)c2n1` (stereo not shown) [Compound 26] displayed an inhibition at 0.1 µM in series [1] of 9.68%.

For `COc1ccc2nccc(OCC3CCC(NCc4cc(F)c(Cl)c(F)c4)CC3)c2n1` (stereo not shown) [Compound 27], testing at 0.1 µM in series [1] gave an inhibition of 41.6%.

In turn, `COc1ccc2nccc(OCC3CCC(NCc4cc(F)c(Br)c(F)c4)CC3)c2n1` (stereo not shown) [Compound 28] yielded an inhibition at 0.1 µM in series [1] of 23.8%.

The compound `COc1ccc2nccc(OCC3CCC(NCc4ccc(I)c(F)c4)CC3)c2n1` (stereo not shown) [Compound 29] yielded an inhibition at 0.1 µM in series [1] of 27.8%.

Turning to `COc1ccc2nccc(OCC3CCC(NCc4ccc(Cl)cc4)CO3)c2n1` (stereo not shown) [Compound 30], 0.1 µM produced 0% inhibition in series [1].

For the compound `COc1ccc2nccc(OCC3CCC(NCc4ccc(Br)cc4)CO3)c2n1` (stereo not shown) [Compound 31], in series [1], the inhibition at 0.1 µM came to 0%.

As to `COc1ccc2nccc(OCC3CCC(NCc4ccc(I)cc4)CO3)c2n1` (stereo not shown) [Compound 32], the inhibition at 0.1 µM in series [1] stood at 0.6%.

`COc1ccc2nccc(OCC3CCC(NCc4cc(F)c(Br)c(F)c4)CO3)c2n1` (stereo not shown) [Compound 33] showed an inhibition at 0.1 µM in series [1] of 19.3%.

For the compound `COc1ccc2nccc(OCC3CCC(NCc4cc(F)c(Cl)c(F)c4)CO3)c2n1` (stereo not shown) [Compound 34], the inhibition at 0.1 µM in series [1] is 4.3%.

Consider `COc1ccc2nccc(OCC3CCC(NCc4ccc(I)c(F)c4)CO3)c2n1` (stereo not shown) [Compound 35], for which testing at 0.1 µM in series [1] gave an inhibition of 20.3%.

In series [1], `COc1ccc2nccc(C(O)CC3CCC(NCc4ccc(Br)cc4)CC3)c2n1` (stereo not shown) [Compound 36] registered an inhibition at 0.1 µM of 24.9%.

On to `O=c1ccc2ncc(=O)n3c2n1C[C@H]3CN1CCC(NCc2cc3c(cn2)OCCC3)CC1` [Gepotidacin, reference compound], for which the MIC result in the series on M. tuberculosis H37Rv [4] is “g MIC = 0.86 μM value for Gepotidacin was calculated from the published MIC value.[26] “/” values were not found in the literature”. The compound also came in with a half-maximal inhibitory concentration (IC50) against hERG greater than 30000 nM.

Turning to `C[C@H]1COc2c(N3CCN(C)CC3)c(F)cc3c(=O)c(C(=O)O)cn1c23` [Levofloxacin, reference compound], in the series on M. tuberculosis H37Rv [2], the IC50 turned out to be 590 nM and the IC90 was 980 nM.

These data come from article PMC11647683, “Structural Aspects of Mycobacterium tuberculosis DNA Gyrase Targeted by Novel Bacterial Topoisomerase Inhibitors” (ACS Medicinal Chemistry Letters, 2024).
